Experimental data reported in patent US20230081426A1, “COMPOUNDS AND METHODS FOR KRAS MODULATION AND INDICATIONS THEREFOR” (Plexxikon Inc., priority 2020, published 2023).

Tests used:
[1] = target: T1, G12D-mutant human KRAS (amino acid residues 1-188) (Homo sapiens, UniProt P01116, G12D); experiment: KRAS Binding Disruption Assay (AlphaScreen; biotinylated KRpep-2d analogue or RAF1-RBD), G12D; settings: KRAS G12D; geometric mean; read-out: KRAS GMean IC50 (uM) MUTATION: G12D
T1 construct: G12D or G12C-mutant human KRAS (amino acid residues 1-188) with FLAG tag; made in house; host or cells: E. coli
In short: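 Mutant KRAS (5-20 nM) incubated 1 h at 25° C with test compound and 5-20 nM biotinylated KRpep-2d analogue or RAF1-RBD in 20 mM HEPES pH 7.5, 100 mM NaCl, 5 mM MgCl2, 0.01% Tween-20, 0.01% BSA.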

[2] = target: T2, G12V-mutant human KRAS (amino acid residues 1-188) (Homo sapiens, UniProt P01116, G12V); experiment: KRAS Binding Competition Assay (AlphaScreen; biotinylated KRpep-2d analogue), G12V; settings: geometric mean, read-out: KRAS GMean IC50 (uM) MUTATION: G12V
T2 construct: G12V-mutant human KRAS (amino acid residues 1-188) with FLAG tag was purified from E. coli; made in house; host or cells: E. coli

In the case of `CC(=O)Nc1ccc(F)c(-c2ccc3c(N4C[C@H]5CC[C@@H](C4)N5)nc(OC[C@@H]4CCCN4C)nc3c2)c1` [P-0167, N-(3-(4-((1R,5S)-3,8-diazabicyclo[3.2.1]octan-3-yl)-2-(((S)-1-methylpyrrolidin-2-yl)methoxy)quinazolin-7-yl)-4-fluorophenyl)acetamide], the IC50 [1] is reported as 100 to 1000 µM and the IC50 [2] is reported as 100 to 1000 µM.
For `CN1CCC[C@H]1COc1nc(N2C[C@H]3CC[C@@H](C2)N3)c2ccc(-c3ccnc(N)c3)cc2n1` [P-0168, 4-(4-((1R,5S)-3,8-diazabicyclo[3.2.1]octan-3-yl)-2-(((S)-1-methylpyrrolidin-2-yl)methoxy)quinazolin-7-yl)pyridin-2-amine], the IC50 [1] was 100 to 1000 µM and the IC50 [2] was 10 to 100 µM.
With `CN1CCC[C@H]1COc1nc(N2C[C@H]3CC[C@@H](C2)N3)c2ccc(-c3ccccc3O)cc2n1` [P-0169, 2-(4-((1R,5S)-3,8-diazabicyclo[3.2.1]octan-3-yl)-2-(((S)-1-methylpyrrolidin-2-yl)methoxy)quinazolin-7-yl)phenol] the IC50 [1] was 100 to 1000 µM and the IC50 [2] was 100 to 1000 µM.
`CN1CCC[C@H]1COc1nc(N2CC3CCC(C2)N3)c2ccc(-c3cccc(NS(C)(=O)=O)c3)cc2n1` [P-0170, N-(3-(4-((1R,5S)-3,8-diazabicyclo[3.2.1]octan-3-yl)-2-(((S)-1-methylpyrrolidin-2-yl)methoxy)quinazolin-7-yl)phenyl)meanesulfonamide] showed an IC50 [1] of 100 to 1000 µM and an IC50 [2] of 100 to 1000 µM.
For `CN1CCC[C@H]1COc1nc(N2C[C@H]3CC[C@@H](C2)N3)c2ccc(-c3cccc4[nH]ncc34)cc2n1` [P-0171, 4-((1R,5S)-3,8-diazabicyclo[3.2.1]octan-3-yl)-7-(1H-indazol-4-yl)-2-(((S)-1-methylpyrrolidin-2-yl)methoxy)quinazoline], the IC50 [1] was 100 to 1000 µM and the IC50 [2] was 100 to 1000 µM.
Compound `Cc1n[nH]c2cccc(-c3ccc4c(N5C[C@H]6CC[C@@H](C5)N6)nc(OC[C@@H]5CCCN5C)nc4c3)c12` [P-0172, 4-((1R,5S)-3,8-diazabicyclo[3.2.1]octan-3-yl)-7-(3-methyl-1H-indazol-4-yl)-2-(((S)-1-methylpyrrolidin-2-yl)methoxy)quinazoline] has an IC50 [1] of 10 to 100 µM and an IC50 [2] of 100 to 1000 µM.
Work on `CN1CCC[C@H]1COc1nc(N2C[C@H]3CC[C@@H](C2)N3)c2ccc(-c3ccc4c(c3)NCCO4)cc2n1` [P-0173, 6-(4-((1R,5S)-3,8-diazabicyclo[3.2.1]octan-3-yl)-2-(((S)-1-methylpyrrolidin-2-yl)methoxy)quinazolin-7-yl)-3,4-dihydro-2H-benzo[b][1,4]oxazine] yielded an IC50 [1] of 10 to 100 µM and an IC50 [2] of 10 to 100 µM.
In the case of `CN1CCC[C@H]1COc1nc(N2C[C@H]3CC[C@@H](C2)N3)c2ccc(-c3ccc4c(c3)NC(=O)C4)cc2n1` [P-0174, 6-(4-((1R,5S)-3,8-diazabicyclo[3.2.1]octan-3-yl)-2-(((S)-1-methylpyrrolidin-2-yl)methoxy)quinazolin-7-yl)indolin-2-one], the IC50 [1] is reported as 100 to 1000 µM and the IC50 [2] is reported as 10 to 100 µM.
In the case of `CN1CCC[C@H]1COc1nc(N2C[C@H]3CC[C@@H](C2)N3)c2ccc(-c3c[nH]c4ncccc34)cc2n1` [P-0175, 4-((1R,5S)-3,8-diazabicyclo[3.2.1]octan-3-yl)-2-(((S)-1-methylpyrrolidin-2-yl)methoxy)-7-(1H-pyrrolo[2,3-b]pyridin-3-yl)quinazoline], the IC50 [1] is reported as 100 to 1000 µM and the IC50 [2] is reported as 10 to 100 µM.
With `Cc1n[nH]c(C)c1-c1ccc2c(N3C[C@H]4CC[C@@H](C3)N4)nc(OC[C@@H]3CCCN3C)nc2c1` [P-0176, 4-((1R,5S)-3,8-diazabicyclo[3.2.1]octan-3-yl)-7-(3,5-dimethyl-1H-pyrazol-4-yl)-2-(((S)-1-methylpyrrolidin-2-yl)methoxy)quinazoline] the IC50 [1] was 100 to 1000 µM and the IC50 [2] was 100 to 1000 µM.
`CN1CCC[C@H]1COc1nc(N2C[C@H]3CC[C@@H](C2)N3)c2ccc(-c3ccc(Cl)c(N)c3)cc2n1` [P-0177, 5-(4-((1R,5S)-3,8-diazabicyclo[3.2.1]octan-3-yl)-2-(((S)-1-methylpyrrolidin-2-yl)methoxy)quinazolin-7-yl)-2-chloroaniline] was tested, and the IC50 [1] was 10 to 100 µM and the IC50 [2] was 10 to 100 µM.
`CN1CCC[C@H]1COc1nc(N2C[C@H]3CC[C@@H](C2)N3)c2ccc(-c3cnn4ccccc34)cc2n1` [P-0178, 4-((1R,5S)-3,8-diazabicyclo[3.2.1]octan-3-yl)-2-(((S)-1-methylpyrrolidin-2-yl)methoxy)-7-(pyrazolo[1,5-a]pyridin-3-yl)quinazoline] was tested, and the IC50 [1] was 100 to 1000 µM and the IC50 [2] was 100 to 1000 µM.
In the case of `CN1CCC[C@H]1COc1nc(N2C[C@H]3CC[C@@H](C2)N3)c2ccc(-c3cc(O)cc(C(F)(F)F)c3)cc2n1` [P-0179, 3-(4-((1R,5S)-3,8-diazabicyclo[3.2.1]octan-3-yl)-2-(((S)-1-methylpyrrolidin-2-yl)methoxy)quinazolin-7-yl)-5-(trifluoromethyl)phenol], the IC50 [1] is reported as 10 to 100 µM and the IC50 [2] is reported as 100 to 1000 µM.
For `CN1CCC[C@H]1COc1nc(N2C[C@H]3CC[C@@H](C2)N3)c2ccc(-c3cnc(N)nc3C(F)(F)F)cc2n1` [P-0180, 5-(4-((1R,5S)-3,8-diazabicyclo[3.2.1]octan-3-yl)-2-(((S)-1-methylpyrrolidin-2-yl)methoxy)quinazolin-7-yl)-4-(trifluoromethyl)pyrimidin-2-amine], the IC50 [1] was 10 to 100 µM and the IC50 [2] was 100 to 1000 µM.
For `CN1CCC[C@H]1COc1nc(N2C[C@H]3CC[C@@H](C2)N3)c2ccc(-c3ccc4oc(N)nc4c3)cc2n1` [P-0181, 5-(4-((1R,5S)-3,8-diazabicyclo[3.2.1]octan-3-yl)-2-(((S)-1-methylpyrrolidin-2-yl)methoxy)quinazolin-7-yl)benzo[d]oxazol-2-amine], the IC50 [1] was 10 to 100 µM and the IC50 [2] was 10 to 100 µM.
For `CN1CCC[C@H]1COc1nc(N2C[C@H]3CC[C@@H](C2)N3)c2ccc(-c3ccc(CO)s3)cc2n1` [P-0182, (5-(4-((1R,5S)-3,8-diazabicyclo[3.2.1]octan-3-yl)-2-(((S)-1-methylpyrrolidin-2-yl)methoxy)quinazolin-7-yl)thiophen-2-yl)methanol], the IC50 [1] was 100 to 1000 µM and the IC50 [2] was 100 to 1000 µM.
With `Cc1n[nH]c2cc(-c3ccc4c(N5C[C@H]6CC[C@@H](C5)N6)nc(OC[C@@H]5CCCN5C)nc4c3)ccc12` [P-0183, 4-((1R,5S)-3,8-diazabicyclo[3.2.1]octan-3-yl)-7-(3-methyl-1H-indazol-6-yl)-2-(((S)-1-methylpyrrolidin-2-yl)methoxy)quinazoline] the IC50 [1] was 100 to 1000 µM and the IC50 [2] was 10 to 100 µM.
With `CN1CCC[C@H]1COc1nc(N2C[C@H]3CC[C@@H](C2)N3)c2ccc(-c3c(F)ccc4[nH]ccc34)cc2n1` [P-0184, 4-((1R,5S)-3,8-diazabicyclo[3.2.1]octan-3-yl)-7-(5-fluoro-1H-indol-4-yl)-2-(((S)-1-methylpyrrolidin-2-yl)methoxy)quinazoline] the IC50 [1] was 10 to 100 µM and the IC50 [2] was 100 to 1000 µM.
In the case of `CN1C2CCC1(COc1nc(N3C[C@H]4CC[C@@H](C3)N4)c3ccc(-c4cc(O)cc5ccccc45)cc3n1)CC2` [P-0185, 4-(4-((1R,5S)-3,8-diazabicyclo[3.2.1]octan-3-yl)-2-((7-methyl-7-azabicyclo[2.2.1]heptan-1-yl)methoxy)quinazolin-7-yl)naphthalen-2-ol], the IC50 [1] is reported as 0.0001 to 10 µM and the IC50 [2] is reported as 10 to 100 µM.
For `CN1CCN(CCCC(=O)N2[C@@H]3CC[C@H]2CN(c2nc(OCC45CCCN4CCC5)nc4c(F)c(-c5cc(O)cc6ccccc56)ccc24)C3)CC1` [P-0187, 1-((1R,5S)-3-(8-fluoro-7-(3-hydroxynaphthalen-1-yl)-2-((tetrahydro-1H-pyrrolizin-7a(5H)-yl)methoxy)quinazolin-4-yl)-3,8-diazabicyclo[3.2.1]octan-8-yl)-4-(4-methylpiperazin-1-yl)butan-1-one], the IC50 [1] was 0.0001 to 10 µM and the IC50 [2] was 0.0001 to 10 µM.
For `O=C(Cc1c[nH]cn1)N1[C@@H]2CC[C@H]1CN(c1nc(OCC34CCCN3CCC4)nc3c(F)c(-c4cc(O)cc5ccccc45)ccc13)C2` [P-0188, 1-((1R,5S)-3-(8-fluoro-7-(3-hydroxynaphthalen-1-yl)-2-((tetrahydro-1H-pyrrolizin-7a(5H)-yl)methoxy)quinazolin-4-yl)-3,8-diazabicyclo[3.2.1]octan-8-yl)-2-(1H-imidazol-4-yl)ethan-1-one], the IC50 [1] was 0.0001 to 10 µM and the IC50 [2] was 0.0001 to 10 µM.
Compound `CN1CCC[C@H]1COc1nc(N2[C@@H]3CC[C@H]2CN(C(=O)CC2CCNCC2)C3)c2ccc(-c3cc(O)cc4ccccc34)cc2n1` [P-0189, 1-((1R,5S)-8-(7-(3-hydroxynaphthalen-1-yl)-2-(((S)-1-methylpyrrolidin-2-yl)methoxy)quinazolin-4-yl)-3,8-diazabicyclo[3.2.1]octan-3-yl)-2-(piperidin-4-yl)ethan-1-one] has an IC50 [1] of 10 to 100 µM and an IC50 [2] of 10 to 100 µM.
Compound `CN1CCC[C@H]1COc1nc(N2[C@@H]3CC[C@H]2CN(C(=O)CC2CCCNC2)C3)c2ccc(-c3cc(O)cc4ccccc34)cc2n1` (stereo partly drawn) [P-0190, 1-((1R,5S)-8-(7-(3-hydroxynaphthalen-1-yl)-2-(((S)-1-methylpyrrolidin-2-yl)methoxy)quinazolin-4-yl)-3,8-diazabicyclo[3.2.1]octan-3-yl)-2-(piperidin-3-yl)ethan-1-one] has an IC50 [1] of 10 to 100 µM and an IC50 [2] of 10 to 100 µM.
For `CN1CCC[C@H]1COc1nc(N2[C@@H]3CC[C@H]2CN(C(=O)CCC2CCCCN2)C3)c2ccc(-c3cc(O)cc4ccccc34)cc2n1` (stereo partly drawn) [P-0191, 1-((1R,5S)-8-(7-(3-hydroxynaphthalen-1-yl)-2-(((S)-1-methylpyrrolidin-2-yl)methoxy)quinazolin-4-yl)-3,8-diazabicyclo[3.2.1]octan-3-yl)-3-(piperidin-2-yl)propan-1-one], the IC50 [1] was 10 to 100 µM and the IC50 [2] was 10 to 100 µM.
